Values of other authors as cited in patent publication US8945508B2, “Dendrimer compositions and methods of synthesis” (priority 2009, dated 2015).

Tests used:
[1] = more cytotoxic than IRINOTECAN

SMILES | cytotoxicity relative to IRINOTECAN [1] [fold] | in vivo activity in solid tumor models (solid tumors)
CC[C@@]1(O)C(=O)OCc2c1cc1n(c2=O)Cc2cc3cc(O)ccc3nc2-1 [SN-38, 10-hydroxycamptothecin] | 1000 | 
N.N.[Cl][Pt][Cl] [cisplatin] |  | no effect
